Assay results taken from patent US9221781B2, “Synthesis of polyhydroxy chromenone compounds and their anti-tumor effects” (BEIJING SHENOGEN PHARMA GROUP LTD., priority 2012, dated 2015).
Like-named read-outs stand apart in the source and are kept apart here.

Tests used:
[1] = test system: MCF7 cells; test: CellTiter-Glo Luminescent Cell Viability Assay on ER-positive breast cancer MCF-7 cells in vitro; type: cell-based; conditions: Homo sapiens, 72 hours, read-out: Inhibition of viability of breast cancer cells IC50, MCF7 cells
Procedure: B: CellTiter-Glo® Luminescent Cell Viability Assay on ER-Positive Breast Cancer MCF-7 Cells In Vitro:
MCF7 cells from ATCC were maintained in an Dulbecco's modified Eagle medium (DMEM), and 10% fetal calf serum at 37 in a 5% CO2 atmosphere. Cells were placed at a density of 6×10^3 cells per well in a 96-well plate. MCF 7 cells were treated with a test compound dissolved in DMSO at the concentration of 0, 0.3 μM, 0.5 μM, 1 μM, 2 μM, 3 μM, 5 μM, 10 μM, 20 μM, 30 μM, 50 μM and 100 μM for 72 hours. Treated cells were examined through CellTiter-Glo® Luminescent Cell Viability Assay Kit (Promega), and luminescence were recorded with Envision.

[2] = test system: Daudi cells; test: Inhibition of human B lymphoma Daudi cells by CellTiter-Glo Luminescent Assay in vitro; type: cell-based; conditions: 72 hours, read-out: Inhibition of viability of cells in vitro IC50, Daudi cells
Procedure: A: Inhibition of Human B Lymphoma Daudi Cells by CellTiter-Glo® Luminescent Assay In Vitro
The Human B Lymphoma Daudi cells from ATCC were maintained in IMDM and 10% fetal calf serum at 37° C. in a 5% CO2 atmosphere. The cells were subseeded in a 96-well culture plate at a concentration of 6×10^3 cells/well. Human B Lymphoma Daudi cells were treated with a test compound dissolved in DMSO at the concentration of 0, 0.3 μM, 0.5 μM, 1 μM, 2 μM, 3 μM, 10 μM, 20 μM, 30 μM, 50 μM and 100 μM for 72 hours. Treated cells were examined by CeliTiter-Glo® Luminescent Cell Viability Assay Kit (Promega), and luminescence were recorded with Envision.

[3] = test system: BEL-7402 cells; test: Inhibition of liver cancer cell BEL-7402 in vitro by SRB; type: cell-based; conditions: Homo sapiens, 10^−6M, 72 hours, read-out: The inhibition percentage of cell proliferation by the compounds with a concentration of 10^−6M, BEL-7402 cells
Procedure: A: Inhibition of Liver Cancer Cell BEL-7402 In Vitro by the Compounds Detected by SRB
The liver cancer BEL-7402 cells from ATCC were maintained in DMDM, 10% NCS and 50 μg/ml KANA at 37° C. in a 5% CO2 atmosphere, and were subseeded in a 96-well culture plate at a concentration of 6×10^3 cells/well. BEL-7402 cells were treated with a test compound dissolved in DMSO at the concentration of 0, 10^−4M, 10^−5M, 10^−6M, 10^−7M, 10^−8M for 72 hours. OD value was tested by SRB method, and the inhibition percentage was calculated.

[4] = test system: MDA-MB-231 cells; test: CellTiter-Glo Luminescent Cell Viability Assay on ER-negative breast cancer MDA-MB-231 cells in vitro; type: cell-based; conditions: Homo sapiens, 72 hours, read-out: Inhibition of viability of breast cancer cells IC50, MDA-MB-231 cells
Procedure: A: CellTiter-Glo® Luminescent Cell Viability Assay on ER-Negative Breast Cancer MDA-MB-231 In Vitro:
MDA-MB-231 cells were maintained at 37° C., in a 5% CO2 atmosphere in DMEM and 10% fetal calf serum. The cells were placed at a density of 6×10^3 cells per well in a 96-well plate. MDA-MB-231 cells were treated with a test compound dissolved in DMSO at the concentration of 0, 0.3 μM, 0.5 μM, 1 μM, 2 μM, 3 μM, 5 μM, 10 μM, 20 μM, 30 μM, 50 μM and 100 μM for 72 hours. Treated cells were examined under CellTiter-Glo® Luminescent Cell Viability Assay Kit (Promega), and luminescence were recorded with Envision.

[5] = test system: K562 cells; test: Viability of chronic leukemia cells K562 by CellTiter-Glo Luminescent Assay in vitro; type: cell-based, human; conditions: 72 hours, read-out: Inhibition of viability of cells in vitro IC50, K562 cells
Procedure: A: Detection of Viability of Chronic Leukemia Cells K562 by CellTiter-Glo® Luminescent Assay In Vitro
The chronic leukemia cells K562 from ATCC were maintained in IMDM and 10% fetal calf serum at 37° C. in a 5% CO2 atmosphere. The cells were subseeded in a 96-well culture plate at a cencentration of 6×10^3 cells/well.K562 cells were treated with a test compound dissolved in DMSO at the concentration of 0, 0.3 μM, 0.5 μM, 1 μM, 2 μM, 3 μM, 5 μM, 10 μM, 20 μM, 30 μM, 50 μM and 100 μM for 72 hours. Treated cells were examined by CellTiter-Glo® Luminescent Cell Viability Assay Kit (Promega), and luminescence were recorded with Envision.

[6] = test system: HL-60 cells; test: Inhibition of growth of acute myeloblastic leukemia HL-60 cells by MTT method; type: cell-based, human; conditions: 72 hours; for inhibition at 1 µM: Homo sapiens, 10^−6M, read-out: The inhibition percentage of cell proliferation by the compounds with a concentration of 10^−6M, HL-60 cells
Procedure: A: Inhibition of Growth of Acute Myeloblastic Leukemia HL-60 Cells by the Compounds Detected by MTT Method
(§1) The acute myeloblastic leukemia HL-60 cells from ATCC were maintained in IMDM and 10% fetal calf serum at 37° C. in a 5% CO2 atmosphere. The cells were subseeded in a 96-well culture plate at a concentration of 6×10^3 cells/well. HL-60 cells were treated with a test compound dissolved in DMSO at the concentration of 0, 10^−4M, 10^−5M, 10^−6M, 10^−7M, 10^−8M for 72 hours. OD value was tested by MTT method, and the inhibition ratio was calculated.

[7] = test system: Molt-4 cells; test: Inhibition of growth of acute lymphoblastic leukemia Molt-4 cells by MTT method; type: cell-based; conditions: 72 hours; for inhibition at 1 µM: Homo sapiens, 10^−6M, read-out: The inhibition percentage of cell proliferation by the compounds with a concentration of 10^−6M, Molt-4 cells
Procedure: B: Inhibition of Growth of Acute Lymphoblastic Leukemia Molt-4 Cells by the Compounds Detected by MTT Method
as §1, with “lymphoblastic” for “myeloblastic”, “Molt-4” for “HL-60”, “RPMI-1640” for “IMDM”, “cells/well and maintained RPMI-1640 and 10% fetal calf serum at 37° C. 5%CO2 atmosphere. Molt-4” for “cells/well. HL-60”

| Compound | IC50 [1] [µM] | IC50 ([2]; Homo sapiens) [µM] | inhibition at 1 µM [3] [%] | IC50 [4] [µM] | IC50 ([5]; Homo sapiens) [µM] | inhibition at 1 µM [6] [%] | inhibition at 1 µM [7] [%] | IC50 [2] [µM] | IC50 [5] [µM] | The inhibition percentage of cell proliferation by the compounds with a concentration of 10^−6M, HL-60 cells [6] | The inhibition percentage of cell proliferation by the compounds with a concentration of 10^−6M, Molt-4 cells [7] |
| --- | --- | --- | --- | --- | --- | --- | --- | --- | --- | --- | --- |
| CC(C)=CCc1c(O)cc(O)c2c(=O)c(O)c(-c3ccc(Cl)c(F)c3)oc12 [Compound 3, 2-(3-fluoro-4-chlorophenyl)-3,5,7-trihydroxy-8-(3-methyl-2-buten-1-yl)-4H-chromen-4-one] | 8.6 | 2.91 | 28.6 | 2.87 | 1.85 | 28.5 | 14.4 | – | – | – | – |
| CC(C)=CCc1c(O)cc(O)c2c(=O)c(O)c(-c3ccc(Cl)c(Cl)c3)oc12 [Compound 6, 2-(3,4-dichlorophenyl)-3,5,7-trihydroxy-8-(3-methyl-2-buten-1-yl)-4H-chromen-4-one] | 6.85 | 1.98 | 14.9 | 1.88 | 0.935 | 61.9 | 67.4 | – | – | – | – |
| CC(C)=CCc1c(O)cc(O)c2c(=O)c(O)c(-c3ccc(Cl)c(C(F)(F)F)c3)oc12 [Compound 7, 2-(3-trifluoromethyl-4-chlorophenyl)-3,5,7-trihydroxy-8-(3-methyl-2-buten-1-yl)-4H-chromen-4-one] | 7.54 | 4.07 | 19.8 | 9.3 | 6.14 | < 10 | 57 | – | – | – | – |
| CC(C)=CCc1c(O)cc(O)c2c(=O)c(O)c(-c3ccc(F)cc3)oc12 [Compound 2, 2-(4-fluorophenyl)-3,5,7-trihydroxy-8-(3-methyl-2-buten-1-yl)-4H-chromen-4-one] | 3.17 | 9.23 | 21.8 | > 100 | 6.14 | – | < 10 | – | – | – | – |
| COc1c(-c2ccc(C(F)(F)F)cc2)oc2c(CC=C(C)C)c(O)cc(O)c2c1=O [Compound 9, 2-(4-trifluoromethylphenyl)-3-methoxy-5,7-dihydroxy-8-(3-methyl-2-buten-1-yl)-4H-chromen-4-one] | > 100 | – | 11.7 | > 100 | – | < 10 | < 10 | – | – | – | – |
| 2-(4-fluorophenyl)-3-methoxy-5,7-dihydroxy-8-(3-methyl-2-buten-1-yl)-4H-chromen-4-one [Compound 11] | – | – | – | – | – | – | – | > 100 | > 100 | NA (NA means no activity, and inhibition percentage by the compound with a concentration of 10^−6M was below 10%.) | NA (NA means no activity, and inhibition percentage by the compound with a concentration of 10^−6M was below 10%.) |
| Nc1ccn([C@@H]2O[C@H](CO)[C@@H](O)[C@@H]2O)c(=O)n1 [cytarabinen, reference compound] | – | – | – | – | – | – | – | 10 | – | – | – |
| COc1cccc2c1C(=O)c1c(O)c3c(c(O)c1C2=O)C[C@@](O)(C(=O)CO)C[C@@H]3O[C@H]1C[C@H](N)[C@H](O)[C@H](C)O1 [Doxorubicin, reference compound] | – | – | 55.2 | – | – | 79 | 90.1 | – | – | – | – |
| CC(C)=CCc1c(O)cc(O)c2c(=O)c(O)c(-c3ccc(Cl)cc3)oc12 [Compound 4, 2-(4-chlorophenyl)-3,5,7-trihydroxy-8-(3-methyl-2-buten-1-yl)-4H-chromen-4-one] | 16 | 2.64 | 46.4 | 4.33 | 0.974 | 0.974 | 14.7 | – | – | – | – |
| CC(C)=CCc1c(O)cc(O)c2c(=O)c(O)c(-c3ccc(OC(F)(F)F)cc3)oc12 [Compound 5, 2-(4-trifluoromethoxyphenyl)-3,5,7-trihydroxy-8-(3-methyl-2-buten-1-yl)-4H-chromen-4-one] | 6.85 | 1.49 | 15.6 | 4.48 | 1.48 | 59.8 | 69.4 | – | – | – | – |
| COc1c(-c2ccc(F)c(F)c2)oc2c(CC=C(C)C)c(O)cc(O)c2c1=O [Compound 10, 2-(3,4-difluorophenyl)-3-methoxy-5,7-dihydroxy-8-(3-methyl-2-buten-1-yl)-4H-chromen-4-one] | 31.5 | 21.8 | 17.4 | > 100 | > 100 | – | – | – | – | – | – |
